PubChem BioAssay AID1963828 (Molecular Pharmacology Branch, DTP, NCI, 2024)

Test system: 991263-137-R1-J2-PDC complex spheroid viability
Test: Anticancer human tumor 991263-137-R1-J2-PDC patient-derived colon adenocarcinoma cell line growth inhibition [POLQ]
Details: for IC50: curve of first compound; for viability, T/C: stronger effect = lower value
Method: Multicellular complex tumor spheroid response to Polymerase (POL) inhibitors (novobiocin, ART-558, RP6685) in combination with a variety of drugs and investigational agents in selected tumor cell lines
The POL inhibitors (novobiocin, ART-558, and RP6685) were evaluated both individually and in combination with standard of care and investigational anticancer small molecules within a complex spheroid model of solid tumors. . Complex spheroids include a stromal component modeled by human endothelial cells (HUVEC) and fibroblasts modeled by human mesenchymal stem cells (MSCs). The concentration ranges selected for each drug and investigational agent were based upon clinically achievable concentrations if the clinical Cmax of the agent was known.
Compounds. The drugs and investigational agents: novobiocin (NSC847541), ART-558 (NSC835418), RP-6685 (NSC848927), peposertib (NSC802822), ceralasertib (NSC780249), elimusertib (NSC800525), camonsertib (NSC841442), AZD-1390 (NSC803789), olaparib (NSC753686), talazoparib (NSC767125), rucaparib (NSC756644), sotorasib (NSC818433), MRTX-1133 (NSC836407), SN-38 (NSC673596), topotecan (NSC609699), epotoside (NSC141540), doxorubicin (NSC123127), gemcitabine (NSC613327), 5-fluorouracil (NSC19893), paclitaxel (NSC125973), vemurafenib (NSC761431), MSA-2 (NSC828583), SN-011 (NSC837082), adavosertib (NSC754352), prexasertib (NSC758257), carboplatin (NSC241240) and oxaliplatin (NSC266046), were obtained from the National Cancer Institute (NCI) Developmental Therapeutics Program Chemical Repository (21). The FDA-approved anticancer drug set is available from the Developmental Therapeutics Program at https://dtp.cancer.gov/organization/dscb/obtaining/. […] The stock solutions were prepared in dimethyl sulfoxide (DMSO, Sigma-Aldrich, St. Louis, MO, cat. D2650), except for the platinum compounds which were prepared in saline (Quality Biological, Gaithersburg, MD, cat. 114-055-101), at 800-fold the tested concentration and stored at -70 degrees C prior to their use. All drugs and investigational agents were tested over a range starting from a high concentration at or near the clinical Cmax and decreasing in half-log increments. If the clinical Cmax for an agent had not been determined, the highest concentration tested was 10 microM, except for SN-38, which was tested at a high concentration of 1 microM.
Cell Culture. All cells were maintained in an incubator at 37 degrees C and 5% CO2 with 95% humidity. The PDC lines were cultured according to standard operating procedures established by the NCI PDMR (https://pdmr.cancer.gov). Table 3 of the manuscript, lists the cell lines along with the number of the three cell types plated to form the mct-spheroids and media for tumor cell growth. After thawing, all PDC lines, except 997537-175-T-J1-PDC and 415267-285-R-J2-PDC, were cultured in Matrigel-coated flasks prepared with a working solution of 1X Ham's F-12 nutrient mix, without supplementation (Thermo Fisher Scientific, cat. 11765054), 100 U/mL penicillin-streptomycin (Thermo Fisher Scientific, cat. 15140122), and 2.5% Matrigel (Corning Inc., Corning, NY, cat. 354248) for the first three passages. The two PDC lines 997537-175-T-J1-PDC and 415267-285-R-J2-PDC were cultured on uncoated flasks. The 857933-349-R-J2-PDC line was cultured in 6C/Colon 1B media containing advanced DMEM/F-12 (Thermo Fisher Scientific, cat. 12634028), 10 mM HEPES (Thermo Fisher Scientific, cat. 15630080), 1X GlutaMAX supplement (Thermo Fisher Scientific, cat. 35050061), 0.1 mg/mL primocin (InvivoGen, San Diego, CA, cat. ant-pm-2), 10% defined fetal bovine serum, heat inactivated (HyClone Laboratories Inc., Logan, UT, cat. SH30070.03HI), 50% L-WRN conditioned media (ATCC, cat. CRL-3276), 1.25 mM N-Acetyl-L-cysteine (Sigma-Aldrich, cat. A9165), 10 mM nicotinamide (Sigma-Aldrich, cat. N0636), 1X B-27 supplement (Thermo Fisher Scientific, cat. 17504044), 1X N-2 supplement (Thermo Fisher Scientific, cat. […]
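Also: spheroids exposed to compounds for 7 days before readout.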
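For viability, T/C in this document: 100% = DMSO vehicle control viability.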

Question: Which IC50 (second compound 0.0316 µM) does the source give for `COc1ccc([C@@H](O)c2cc(-c3ncnc4cc(N5CCOCC5)ccc34)c(F)cc2Cl)nn1` + Cc1cccc(N(C)C(=O)C2C(O)CCN2c2nc(C)cc(C(F)(F)F)c2C#N)c1 here?
Answer: 2.6 µM

Question: What about the IC50 (second compound 0.1 µM) of the same compound?
Answer: 5.78 µM

Question: What about the IC50 (second compound 0.316 µM) of the same compound?
Answer: 5.97 µM

Question: And the IC50 (second compound 1 µM)?
Answer: 6.2 µM

Question: And the IC50 (second compound 3.16 µM)?
Answer: 5.68 µM

Question: And the IC50 (second compound 10 µM)?
Answer: 3.76 µM

Question: And the viability, T/C (second compound 0.0316 µM, first compound 0.0316 µM)?
Answer: 101%

Question: And the viability, T/C (second compound 0.0316 µM, first compound 0.1 µM)?
Answer: 88.1%

Question: And the viability, T/C (second compound 0.0316 µM, first compound 0.316 µM)?
Answer: 93.3%

Question: And the viability, T/C (second compound 0.0316 µM, first compound 1 µM)?
Answer: 110%

Question: What about the viability, T/C (second compound 0.0316 µM, first compound 3.16 µM) of the same compound?
Answer: 40.1%

Question: And the viability, T/C (second compound 0.0316 µM, first compound 10 µM)?
Answer: 27.1%

Question: What about the viability, T/C (second compound 0.1 µM, first compound 0.0316 µM) of the same compound?
Answer: 116%

Question: What about the viability, T/C (second compound 0.1 µM, first compound 0.1 µM) of the same compound?
Answer: 104%

Question: What about the viability, T/C (second compound 0.1 µM, first compound 0.316 µM) of the same compound?
Answer: 98.1%

Question: And the viability, T/C (second compound 0.1 µM, first compound 1 µM)?
Answer: 88%

Question: And the viability, T/C (second compound 0.1 µM, first compound 3.16 µM)?
Answer: 76.4%

Question: And the viability, T/C (second compound 0.1 µM, first compound 10 µM)?
Answer: 29.3%

Question: And the viability, T/C (second compound 0.316 µM, first compound 0.0316 µM)?
Answer: 103%

Question: What about the viability, T/C (second compound 0.316 µM, first compound 0.1 µM) of the same compound?
Answer: 103%

Question: And the viability, T/C (second compound 0.316 µM, first compound 0.316 µM)?
Answer: 84.9%

Question: What about the viability, T/C (second compound 0.316 µM, first compound 1 µM) of the same compound?
Answer: 87.5%

Question: What about the viability, T/C (second compound 0.316 µM, first compound 3.16 µM) of the same compound?
Answer: 68.9%

Question: And the viability, T/C (second compound 0.316 µM, first compound 10 µM)?
Answer: 34.9%

Question: What about the viability, T/C (second compound 1 µM, first compound 0.0316 µM) of the same compound?
Answer: 99.5%

Question: What about the viability, T/C (second compound 1 µM, first compound 0.1 µM) of the same compound?
Answer: 114%

Question: What about the viability, T/C (second compound 1 µM, first compound 0.316 µM) of the same compound?
Answer: 75.2%

Question: What about the viability, T/C (second compound 1 µM, first compound 1 µM) of the same compound?
Answer: 89%

Question: And the viability, T/C (second compound 1 µM, first compound 3.16 µM)?
Answer: 76.3%

Question: What about the viability, T/C (second compound 1 µM, first compound 10 µM) of the same compound?
Answer: 33.1%

Question: And the viability, T/C (second compound 3.16 µM, first compound 0.0316 µM)?
Answer: 97.5%

Question: And the viability, T/C (second compound 3.16 µM, first compound 0.1 µM)?
Answer: 92.8%

Question: What about the viability, T/C (second compound 3.16 µM, first compound 0.316 µM) of the same compound?
Answer: 77.9%

Question: What about the viability, T/C (second compound 3.16 µM, first compound 1 µM) of the same compound?
Answer: 79.5%

Question: What about the viability, T/C (second compound 3.16 µM, first compound 3.16 µM) of the same compound?
Answer: 75.5%

Question: What about the viability, T/C (second compound 3.16 µM, first compound 10 µM) of the same compound?
Answer: 29.4%

Question: What about the viability, T/C (second compound 10 µM, first compound 0.0316 µM) of the same compound?
Answer: 85.3%

Question: What about the viability, T/C (second compound 10 µM, first compound 0.1 µM) of the same compound?
Answer: 117%

Question: What about the viability, T/C (second compound 10 µM, first compound 0.316 µM) of the same compound?
Answer: 86%

Question: What about the viability, T/C (second compound 10 µM, first compound 1 µM) of the same compound?
Answer: 90.5%

Question: What about the viability, T/C (second compound 10 µM, first compound 3.16 µM) of the same compound?
Answer: 53.2%

Question: And the viability, T/C (second compound 10 µM, first compound 10 µM)?
Answer: 30%
